EC50 data for 23 compounds are collected here from patent publication US12227496B2 (BRISTOL-MYERS SQUIBB COMPANY, priority 2019, dated 2025).

SMILES strings stand for the structures.

In this assay the target is T1, human FXR (Homo sapiens, UniProt Q96RI1).
T1 construct: expressed in transfected cells; host or cells: HEK293 cells stably carrying a 5xGal4-response-element firefly luciferase reporter, transiently transfected with pcDNA3.1-Gal4-FXR
T1 sequence (Q96RI1 262-486 limits assumed): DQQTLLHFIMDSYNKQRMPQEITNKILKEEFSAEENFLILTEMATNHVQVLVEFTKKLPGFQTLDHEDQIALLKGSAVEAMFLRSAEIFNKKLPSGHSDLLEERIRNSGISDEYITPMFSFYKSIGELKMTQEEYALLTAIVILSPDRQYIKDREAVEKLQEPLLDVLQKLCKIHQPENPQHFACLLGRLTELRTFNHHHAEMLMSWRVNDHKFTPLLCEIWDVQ
The experiment in a line: transient human FXR/Gal4-luciferase reporter assay. The assay is classed as cell-based. Particulars: Gal4-hFXR LBD fusion, luciferase reporter in HEK293 cells; response relative to 8 μM GW-4064. In short, it runs like this: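 HEK293 cells stably carrying a 5×Gal4-response-element firefly luciferase reporter were transiently transfected with Gal4-hFXR. They were then incubated overnight at 37 °C with compound serial dilutions in medium containing 10% charcoal/dextran-stripped FBS. Luminescence was read after Steady-Glo addition.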
For `CC(F)(F)c1nc(C23CCC(CN(C(=O)C4CCOCC4)c4ccc(F)c(-c5ccc(P(C)(C)=O)cc5)c4)(CC2)CC3)no1` [Example 122, N-((4-(5-(1,1-difluoroethyl)-1,2,4-oxadiazol-3-yl)bicyclo[2.2.2]octan-1-yl)methyl)-N-(4′-(dimethylphosphoryl)-6-fluoro-[1,1′-biphenyl]-3-yl)tetrahydro-2H-pyran-4-carboxamide], the EC50 was 1320 nM. In other words, the single-digit micromolar range. As for `CN1CCC(C(=O)N(CC23CCC(c4cc(C5CC5)nn4C)(CC2)CC3)c2cccc(-c3cc(C4CC4)on3)c2)CC1` [Example 133, N-((4-(3-cyclopropyl-1-methyl-1H-pyrazol-5-yl)bicyclo[2.2.2]octan-1-yl)methyl)-N-(3-(5-cyclopropylisoxazol-3-yl)phenyl)-1-methylpiperidine-4-carboxamide], the figure is 2000 nM. As for `CC(C)(C)c1nnc(C23CCC(CN(C(=O)C4CCC(F)(F)CC4)c4cccc(-c5nc(C6CC6)no5)c4)(CC2)CC3)o1` [Example 123, N-((4-(5-(tert-Butyl)-1,3,4-oxadiazol-2-yl)bicyclo[2.2.2]octan-1-yl)methyl)-N-(3-(3-cyclopropyl-1,2,4-oxadiazol-5-yl)phenyl)-4,4-difluorocyclohexane-1-carboxamide], the figure is 280 nM; as for `COc1nccc(-c2cccc(N(CC34CCC(c5nc(C6CC6)no5)(CC3)CC4)C(=O)C3CCC(F)(F)CC3)c2)n1` [Example 85, N-((4-(3-cyclopropyl-1,2,4-oxadiazol-5-yl)bicyclo[2.2.2]octan-1-yl)methyl)-4,4-difluoro-N-(3-(2-methoxypyrimidin-4-yl)phenyl)cyclohexane-1-carboxamide], 787 nM. As to `COc1cc(-c2cccc(N(CC34CC(c5nc(C6CCOCC6)no5)(C3)C4)C(=O)C3CCCCC3)c2)ccn1` [Example 97, N-(3-(2-methoxypyridin-4-yl)phenyl)-N-((3-(3-(tetrahydro-2H-pyran-4-yl)-1,2,4-oxadiazol-5-yl)bicyclo[1.1.1]pentan-1-yl)methyl)cyclohexanecarboxamide], a half-maximal response (EC50) required 1710 nM.

Turning to `CCOc1ccc(-c2cc(N(CC34CCC(c5noc(C(C)(F)F)n5)(CC3)CC4)C(=O)C3CCC(F)(F)CC3)ccc2F)cc1` [Example 105, N-((4-(5-(1,1-difluoroethyl)-1,2,4-oxadiazol-3-yl)bicyclo[2.2.2]octan-1-yl)methyl)-N-(4′-ethoxy-6-fluoro-[1,1′-biphenyl]-3-yl)-4,4-difluorocyclohexane-1-carboxamide], the response was half-maximal at 637 nM (EC50). The compound `CC(C)(C)OC(=O)N1CCC(C(=O)N(CC23CCC(c4nc(C5CC5)no4)(CC2)CC3)c2cccc(-c3nc(C(F)F)co3)c2)CC1` [Example 38, tert-butyl 4-(((4-(3-cyclopropyl-1,2,4-oxadiazol-5-yl)bicyclo[2.2.2]octan-1-yl)methyl)(3-(4-(difluoromethyl)oxazol-2-yl)phenyl)carbamoyl) piperidine-1-carboxylate] registered an EC50 of 4390 nM. `CC(C)(F)c1nc(C23CCC(CN(C(=O)C4CCOCC4)c4cccc(-c5cn[nH]c(=O)c5)c4)(CC2)CC3)no1` [Example 128, N-((4-(5-(2-fluoropropan-2-yl)-1,2,4-oxadiazol-3-yl)bicyclo[2.2.2]octan-1-yl)methyl)-N-(3-(6-oxo-1,6-dihydropyridazin-4-yl)phenyl)tetrahydro-2H-pyran-4-carboxamide]: the EC50 was 4000 nM. Consider `Cn1nc(C2CC2)cc1C12CCC(CN(C(=O)C3CCOCC3)c3cccc(-c4cc(C5CC5)on4)c3)(CC1)CC2` [Example 132, N-((4-(3-cyclopropyl-1-methyl-1H-pyrazol-5-yl)bicyclo[2.2.2]octan-1-yl)methyl)-N-(3-(5-cyclopropylisoxazol-3-yl)phenyl)tetrahydro-2H-pyran-4-carboxamide], for which the EC50 came to 227 nM. With `O=C(C1CCC(F)(F)CC1)N(CC12CCC(c3noc(C4(C(F)(F)F)CC4)n3)(CC1)CC2)c1cccc(-c2cc(C3CC3)no2)c1` [Example 149, N-(3-(3-cyclopropylisoxazol-5-yl)phenyl)-4,4-difluoro-N-((4-(5-(1-(trifluoromethyl)cyclopropyl)-1,2,4-oxadiazol-3-yl)bicyclo[2.2.2]octan-1-yl)methyl)cyclohexane-1-carboxamide], the EC50 is 78 nM. Compound `COc1ncc(-c2cccc(N(CC34CCC(c5nc(C)no5)(CC3)CC4)C(=O)C3CCCCC3)c2)o1` [Example 6, N-(3-(2-methoxyoxazol-5-yl)phenyl)-N-((4-(3-methyl-1,2,4-oxadiazol-5-yl)bicyclo[2.2.2]octan-1-yl)methyl)cyclohexanecarboxamide] displayed an EC50 of 118 nM. This EC50 is about 1.5-fold higher than that of the compound before. As to `O=C(C1CCS(=O)(=O)CC1)N(CC12CCC(c3nc(C4CC4)no3)(CC1)CC2)c1cccc(-c2cc(C3CC3)no2)c1` [Example 152, N-((4-(3-cyclopropyl-1,2,4-oxadiazol-5-yl)bicyclo[2.2.2]octan-1-yl)methyl)-N-(3-(3-cyclopropylisoxazol-5-yl)phenyl)tetrahydro-2H-thiopyran-4-carboxamide 1,1-dioxide], the EC50 was 662 nM. Consider `Cc1cn(-c2cccc(N(CC34CCC(c5nc(C(C)(C)C)no5)(CC3)CC4)C(=O)C3CCC(F)(F)CC3)c2)cn1` [Example 142, N-((4-(3-(tert-butyl)-1,2,4-oxadiazol-5-yl)bicyclo[2.2.2]octan-1-yl)methyl)-4,4-difluoro-N-(3-(4-methyl-1H-imidazol-1-yl)phenyl)cyclohexane-1-carboxamide], for which the EC50 came to 721 nM.

For `O=C(C1CCC(F)(F)CC1)N(CC12CCC(c3nc(C4CC4)no3)(CC1)CC2)c1cccc(-c2nc(C3CC3)no2)c1` [Example 14, N-((4-(3-cyclopropyl-1,2,4-oxadiazol-5-yl)bicyclo[2.2.2]octan-1-yl)methyl)-N-(3-(3-cyclopropyl-1,2,4-oxadiazol-5-yl)phenyl)-4,4-difluorocyclohexane-1-carboxamide], the EC50 came out at 272 nM.

On to `Cn1cc(-c2cccc(N(CC34CCC(c5nc(C6CC6)no5)(CC3)CC4)C(=O)C3CCCOC3)c2)nc1C1CC1` (racemic) [Example 68, N-((4-(3-cyclopropyl-1,2,4-oxadiazol-5-yl)bicyclo[2.2.2]octan-1-yl)methyl)-N-(3-(2-cyclopropyl-1-methyl-1H-imidazol-4-yl)phenyl)tetrahydro-2H-pyran-3-carboxamide], for which the midpoint of the response, the EC50, lay at 4100 nM. As for `CCOc1ccc(-c2cccc(N(CC34CCC(c5nc(C(C)(C)C)no5)(CC3)CC4)C(=O)C3CCC(OC)CC3)c2)cc1` (single isomer, unassigned) [Example 146, N-((4-(3-(tert-butyl)-1,2,4-oxadiazol-5-yl)bicyclo[2.2.2]octan-1-yl)methyl)-N-(4′-ethoxy-[1,1′-biphenyl]-3-yl)-4-methoxycyclohexane-1-carboxamide], the response was half-maximal at 402 nM (EC50). In turn, `Cc1nc2ccc(-c3cc(N(CC45CCC(c6noc(C(C)(F)F)n6)(CC4)CC5)C(=O)C4CCC(F)(F)CC4)ccc3F)cc2s1` [Example 108, N-((4-(5-(1,1-difluoroethyl)-1,2,4-oxadiazol-3-yl)bicyclo[2.2.2]octan-1-yl)methyl)-4,4-difluoro-N-(4-fluoro-3-(2-methylbenzo[d]thiazol-6-yl)phenyl)cyclohexane-1-carboxamide] displayed an EC50 of 250 nM. Compared with the last compound, the EC50 is about 1.6-fold lower. Next, `COc1cc(-c2cccc(N(CC34CCC(c5nc(C6CC6)no5)(CC3)CC4)C(=O)C3CCOCC3)c2)ccn1` [Example 83, N-((4-(3-cyclopropyl-1,2,4-oxadiazol-5-yl)bicyclo[2.2.2]octan-1-yl)methyl)-N-(3-(2-methoxypyridin-4-yl)phenyl)tetrahydro-2H-pyran-4-carboxamide]: 303 nM; `O=C(C1CCOCC1)N(CC12CCC(c3nc(C4CC4)no3)(CC1)CC2)c1cccc(-c2cc(C3CC3)no2)c1` [Example 153, N-((4-(3-cyclopropyl-1,2,4-oxadiazol-5-yl)bicyclo[2.2.2]octan-1-yl)methyl)-N-(3-(3-cyclopropylisoxazol-5-yl)phenyl)tetrahydro-2H-pyran-4-carboxamide]: 57 nM. Next, `O=C(C1CCCOC1)N(CC12CCC(c3nc(C4CC4)no3)(CC1)CC2)c1cccc(-c2nc3cc(F)ccc3o2)c1` (racemic) [Example 92, N-((4-(3-cyclopropyl-1,2,4-oxadiazol-5-yl)bicyclo[2.2.2]octan-1-yl)methyl)-N-(3-(5-fluorobenzo[d]oxazol-2-yl)phenyl)tetrahydro-2H-pyran-3-carboxamide]: 589 nM; `CC(F)(F)c1nc(C23CCC(CN(C(=O)C4CCOCC4)c4cccc(-c5ccc(OC(F)F)cc5)c4)(CC2)CC3)no1` [Example 109, N-((4-(5-(1,1-difluoroethyl)-1,2,4-oxadiazol-3-yl)bicyclo[2.2.2]octan-1-yl)methyl)-N-(4′-(difluoromethoxy)-[1,1′-biphenyl]-3-yl)tetrahydro-2H-pyran-4-carboxamide]: 50 nM.

In turn, `O=C(C1CCOCC1)N(CC12CCC(c3nc(CC4CC4)no3)(CC1)CC2)c1cccc(-c2nc(CC3CC3)no2)c1` [Example 41, N-((4-(3-(cyclopropylmethyl)-1,2,4-oxadiazol-5-yl)bicyclo[2.2.2]octan-1-yl)methyl)-N-(3-(3-(cyclopropylmethyl)-1,2,4-oxadiazol-5-yl)phenyl)tetrahydro-2H-pyran-4-carboxamide] showed an EC50 of 229 nM. Regarding `O=C(N1CCCC(CO)C1)N(CC12CCC(c3nc(C4CC4)no3)(CC1)CC2)c1cccc(-c2nc(C3CC3)no2)c1` (racemic) [Example 65, N-((4-(3-cyclopropyl-1,2,4-oxadiazol-5-yl)bicyclo[2.2.2]octan-1-yl)methyl)-N-(3-(3-cyclopropyl-1,2,4-oxadiazol-5-yl)phenyl)-3-(hydroxymethyl)piperidine-1-carboxamide], the concentration giving a half-maximal response (EC50) came to 740 nM. This EC50 lies about 3.2-fold higher than the previous one.
